The data set is described as follows: recombinant UMI read abundance after kanamycin selection (control-corrected) (log10(CPM+1)); higher = more efficient recombination; extreme values may be limits of the assay; sequences stand for … in AGTGCAGAGAAAATCGGCCAGTTTTCTCTGCCTGCAGTCCGCATGCCGTGGGACCCCTTGGGTTCTAACCTGTTGCCTAGATTTATGCAGCGGACTGCCTTTCTCCCAAAGTGATAAACCGG…AGGTTGGTTTCACT; site = the 11-nt donor. The essentials:
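In Escherichia coli, a pool of donor and donor-binding-loop pairs, each with a 12-nt UMI, was tested for the IS621 bridge recombinase. Plating was on IPTG (0.07 mM) plus kanamycin, or without selection, in two replicates. Recombinant UMIs were amplified by PCR across the donor–target junction and sequenced, and counts were reported as log10(CPM+1) after averaging and control-derived scaling.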
With “GGACTTCCATGGACCGGTTTTCCCGGTAATCCGTATTTGAA (site GGACTTCCTTT)”, the “recombinant UMI read abundance (log10)” value came out at 1.42. The same measure for “GGAGACTCATGGACCGGTTTTCCCGGTAATCCGTATTTGGC (site GGAGACTCTGC)”: 0.784; for “GGAGACTCATGGACCGGTTTTCCCGGTAATCCGTATTTGTG (site GGAGACTCTCA)”: 1.74.

“GGAGAGGCATGGACCGGTTTTCCCGGTAATCCGTATTTGGT (site GGAGAGGCTAC)”: the “recombinant UMI read abundance (log10)” value was found to be 0.00324. Under “GGAGAGGCATGGACCGGTTTTCCCGGTAATCCGTATTTGGT (site GGAGCGGCTAC)” stands 0.00751; under “GGAGAGGCATGGACCGGTTTTCCCGGTAATCCGTATTTGGT (site GGAGGGGCTAC)”, 0.0239; under “GGAGAGGCATGGACCGGTTTTCCCGGTAATCCGTATTTGGT (site GGAGTGGCTAC)”, 0.0204. As to “GGAGATCCATGGACCGGTTTTCCCGGTAATCCGTATTTGCA (site GGAGATCCTTG)”, the “recombinant UMI read abundance (log10)” value was found to be 0.

On to “GGAGATTCATGGACCGGTTTTCCCGGTAATCCGTATTTGTT (site GAAGATTCTAA)”, for which the “recombinant UMI read abundance (log10)” value was 0. Under “GGAGATTCATGGACCGGTTTTCCCGGTAATCCGTATTTGTT (site GCAGATTCTAA)” stands 0. “GGAGATTCATGGACCGGTTTTCCCGGTAATCCGTATTTGTT (site GGAGATTCTAA)”: the “recombinant UMI read abundance (log10)” value worked out at 2.52. For “GGAGATTCATGGACCGGTTTTCCCGGTAATCCGTATTTGTT (site GTAGATTCTAA)”, the “recombinant UMI read abundance (log10)” value came to 0.

Take “GGAGCTTCATGGACCGGTTTTCCCGGTAATCCGTATTTGGC (site GGAGCTTCTGC)”: the “recombinant UMI read abundance (log10)” value amounted to 1.5. Turning to “GGAGGACCATGGACCGGTTTTCCCGGTAATCCGTATTTGGG (site AGAGGACCTCC)”, the “recombinant UMI read abundance (log10)” value is 0. “GGAGGACCATGGACCGGTTTTCCCGGTAATCCGTATTTGGG (site CGAGGACCTCC)”: the “recombinant UMI read abundance (log10)” value was determined as 0.0177. In the case of “GGAGGACCATGGACCGGTTTTCCCGGTAATCCGTATTTGGG (site GGAGGACCTCC)”, the “recombinant UMI read abundance (log10)” value came out at 0.00471. “GGAGGACCATGGACCGGTTTTCCCGGTAATCCGTATTTGGG (site TGAGGACCTCC)”: the “recombinant UMI read abundance (log10)” value stood at 0.00615. Take “GGAGGTTCATGGACCGGTTTTCCCGGTAATCCGTATTTGAT (site GGAGGTTCTAT)”: the “recombinant UMI read abundance (log10)” value was 1.87. In the case of “GGAGTAGCATGGACCGGTTTTCCCGGTAATCCGTATTTGTC (site GGAGTAGCTGA)”, the “recombinant UMI read abundance (log10)” value amounted to 1.98. For the sequence “GGAGTGGCATGGACCGGTTTTCCCGGTAATCCGTATTTGAT (site GGAGTGGCTAA)”, the “recombinant UMI read abundance (log10)” value was 0.00289.

Turning to “GGAGTGGCATGGACCGGTTTTCCCGGTAATCCGTATTTGAT (site GGAGTGGCTAC)”, the “recombinant UMI read abundance (log10)” value was 0.0174. For “GGAGTGGCATGGACCGGTTTTCCCGGTAATCCGTATTTGAT (site GGAGTGGCTAG)”, the “recombinant UMI read abundance (log10)” value turned out to be 0.

Consider “GGAGTGGCATGGACCGGTTTTCCCGGTAATCCGTATTTGAT (site GGAGTGGCTAT)”, for which the “recombinant UMI read abundance (log10)” value was 1.87.

For the sequence “GGAGTGGCATGGACCGGTTTTCCCGGTAATCCGTATTTGTT (site GGAGTGGCTAA)”, the “recombinant UMI read abundance (log10)” value worked out at 1.06. As for “GGAGTGGCATGGACCGGTTTTCCCGGTAATCCGTATTTGTT (site GGAGTGGCTAC)”, the “recombinant UMI read abundance (log10)” value turned out to be 0.00283.

Turning to “GGAGTGGCATGGACCGGTTTTCCCGGTAATCCGTATTTGTT (site GGAGTGGCTAG)”, the “recombinant UMI read abundance (log10)” value was determined as 1.76. Regarding “GGAGTGGCATGGACCGGTTTTCCCGGTAATCCGTATTTGTT (site GGAGTGGCTAT)”, the “recombinant UMI read abundance (log10)” value turned out to be 0.767.

Turning to “GGATAAACATGGACCGGTTTTCCCGGTAATCCGTATTTGCC (site GGATAAACTGG)”, the “recombinant UMI read abundance (log10)” value stood at 2.49. Regarding “GGATAAACATGGACCGGTTTTCCCGGTAATCCGTATTTGCC (site GGATACACTGG)”, the “recombinant UMI read abundance (log10)” value worked out at 1.01. “GGATAAACATGGACCGGTTTTCCCGGTAATCCGTATTTGCC (site GGATAGACTGG)”: the “recombinant UMI read abundance (log10)” value amounted to 0. With “GGATAAACATGGACCGGTTTTCCCGGTAATCCGTATTTGCC (site GGATATACTGG)”, the “recombinant UMI read abundance (log10)” value was found to be 0.

Regarding “GGATACACATGGACCGGTTTTCCCGGTAATCCGTATTTGCC (site GGATAAACTGG)”, the “recombinant UMI read abundance (log10)” value was 0. As to “GGATACACATGGACCGGTTTTCCCGGTAATCCGTATTTGCC (site GGATACACTGG)”, the “recombinant UMI read abundance (log10)” value amounted to 2.97. Under “GGATACACATGGACCGGTTTTCCCGGTAATCCGTATTTGCC (site GGATAGACTGG)” stands 0; under “GGATACACATGGACCGGTTTTCCCGGTAATCCGTATTTGCC (site GGATATACTGG)”, 0; under “GGATAGACATGGACCGGTTTTCCCGGTAATCCGTATTTGCA (site GGATAGACTAG)”, 0.763. Regarding “GGATAGACATGGACCGGTTTTCCCGGTAATCCGTATTTGCA (site GGATAGACTCG)”, the “recombinant UMI read abundance (log10)” value was determined as 0.831.

Turning to “GGATAGACATGGACCGGTTTTCCCGGTAATCCGTATTTGCA (site GGATAGACTGG)”, the “recombinant UMI read abundance (log10)” value was 0.112. In the case of “GGATAGACATGGACCGGTTTTCCCGGTAATCCGTATTTGCA (site GGATAGACTTG)”, the “recombinant UMI read abundance (log10)” value is 2.79. Regarding “GGATAGACATGGACCGGTTTTCCCGGTAATCCGTATTTGCG (site GGATAGACTAG)”, the “recombinant UMI read abundance (log10)” value was 2.19. Consider “GGATAGACATGGACCGGTTTTCCCGGTAATCCGTATTTGCG (site GGATAGACTCG)”, for which the “recombinant UMI read abundance (log10)” value was found to be 2.55. Take “GGATAGACATGGACCGGTTTTCCCGGTAATCCGTATTTGCG (site GGATAGACTGG)”: the “recombinant UMI read abundance (log10)” value amounted to 1.52. In the case of “GGATAGACATGGACCGGTTTTCCCGGTAATCCGTATTTGCG (site GGATAGACTTG)”, the “recombinant UMI read abundance (log10)” value was 2.13. Under “GGCAAGACATGGACCGGTTTTCCCGGTAATCCGTATTTGCA (site AGGAAGACTTG)” stands 0; under “GGCAAGACATGGACCGGTTTTCCCGGTAATCCGTATTTGCA (site GGCAAGACTTG)”, 2.62; under “GGCAATCCATGGACCGGTTTTCCCGGTAATCCGTATTTGAG (site GGCAATCCTAT)”, 0.

Take “GGCAATCCATGGACCGGTTTTCCCGGTAATCCGTATTTGAG (site GGCAATCCTCT)”: the “recombinant UMI read abundance (log10)” value turned out to be 0.41. The same measure for “GGCAATCCATGGACCGGTTTTCCCGGTAATCCGTATTTGAG (site GGCAATCCTGT)”: 0.

Regarding “GGCAATCCATGGACCGGTTTTCCCGGTAATCCGTATTTGAG (site GGCAATCCTTT)”, the “recombinant UMI read abundance (log10)” value is 0.0105.

For the sequence “GGCAATCCATGGACCGGTTTTCCCGGTAATCCGTATTTGGA (site GGCAATCCTTA)”, the “recombinant UMI read abundance (log10)” value was found to be 0. In the case of “GGCAATCCATGGACCGGTTTTCCCGGTAATCCGTATTTGGA (site GGCAATCCTTC)”, the “recombinant UMI read abundance (log10)” value came to 0. As for “GGCAATCCATGGACCGGTTTTCCCGGTAATCCGTATTTGGA (site GGCAATCCTTG)”, the “recombinant UMI read abundance (log10)” value came to 0. Turning to “GGCAATCCATGGACCGGTTTTCCCGGTAATCCGTATTTGGA (site GGCAATCCTTT)”, the “recombinant UMI read abundance (log10)” value came out at 0.00891. On to “GGCACGACATGGACCGGTTTTCCCGGTAATCCGTATTTGCG (site GGCACGACTCG)”, for which the “recombinant UMI read abundance (log10)” value stood at 0.903. For “GGCACGCCATGGACCGGTTTTCCCGGTAATCCGTATTTGTA (site GACACGCCTTA)”, the “recombinant UMI read abundance (log10)” value worked out at 0.00602.

For “GGCACGCCATGGACCGGTTTTCCCGGTAATCCGTATTTGTA (site GCCACGCCTTA)”, the “recombinant UMI read abundance (log10)” value was found to be 0.006. Under “GGCACGCCATGGACCGGTTTTCCCGGTAATCCGTATTTGTA (site GGCACGCCTTA)” stands 0.523; under “GGCACGCCATGGACCGGTTTTCCCGGTAATCCGTATTTGTA (site GTCACGCCTTA)”, 0.00471; under “GGCACGTCATGGACCGGTTTTCCCGGTAATCCGTATTTGTT (site GGAACGTCTAA)”, 0.027.

Regarding “GGCACGTCATGGACCGGTTTTCCCGGTAATCCGTATTTGTT (site GGCACGTCTAA)”, the “recombinant UMI read abundance (log10)” value was determined as 0.595.

For “GGCACGTCATGGACCGGTTTTCCCGGTAATCCGTATTTGTT (site GGGACGTCTAA)”, the “recombinant UMI read abundance (log10)” value was found to be 0.00471. “GGCACGTCATGGACCGGTTTTCCCGGTAATCCGTATTTGTT (site GGTACGTCTAA)”: the “recombinant UMI read abundance (log10)” value was determined as 0.0192. Take “GGCAGAGCATGGACCGGTTTTCCCGGTAATCCGTATTTGAG (site GGCAGAGCTCT)”: the “recombinant UMI read abundance (log10)” value amounted to 1.67. With “GGCCAAACATGGACCGGTTTTCCCGGTAATCCGTATTTGAC (site GGCCAAACTGT)”, the “recombinant UMI read abundance (log10)” value is 1.73. With “GGCCACCCATGGACCGGTTTTCCCGGTAATCCGTATTTGTA (site GGCCACCCTAA)”, the “recombinant UMI read abundance (log10)” value turned out to be 0.0187. Turning to “GGCCACCCATGGACCGGTTTTCCCGGTAATCCGTATTTGTA (site GGCCACCCTCA)”, the “recombinant UMI read abundance (log10)” value was determined as 0.014. Turning to “GGCCACCCATGGACCGGTTTTCCCGGTAATCCGTATTTGTA (site GGCCACCCTGA)”, the “recombinant UMI read abundance (log10)” value was determined as 0. As for “GGCCACCCATGGACCGGTTTTCCCGGTAATCCGTATTTGTA (site GGCCACCCTTA)”, the “recombinant UMI read abundance (log10)” value is 0.081.

For the origin of these results see the supplement of paper PMC11208160.
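Also: IS621 bridge recombinase in Escherichia coli cells against a fixed T5 target plasmid.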
